From ChEMBL document CHEMBL1201862, “PubChem BioAssay data set” (2004) come the findings set out here.

Some test systems named below: 786-0; HCT-15; T47D; PC-3; SK-OV-3; A498; NCI/ADR-RES; OVCAR-4; SF-539; SF-268; M14; HOP-62; OVCAR-5; OVCAR-3; BT-549; EKVX; DU-145; SF-295; RXF 393; Malme-3M.
Holding throughout (assay): DTP human tumour cell line panel, 48 h

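Growth conditions: 96-well plates. Treatment: test compound, 48 hours, 5 concentrations. Analysis: linear interpolation between bracketing concentrations; unreached endpoints set to highest concentration. GI50 marks 50% less growth.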 Activity calls are given as the source filed them. Rule as the data show it: active = GI50 up to about 1.1 µM and inactive = higher.

As to `O=C(c1ccccc1)c1ccc(N2C(=O)/C(=C/Cc3ccco3)N=C2c2ccccc2)c(N2C(=O)/C(=C/Cc3ccco3)N=C2c2ccccc2)c1`, the GI50 (commonly the concentration at which growth is held to half of that of the control) with 786-0 was 45.7 µM (inactive); with HCT-15, 45 µM; with T47D, 36.4 µM (inactive); with PC-3 it was 39.8 µM (inactive); with SK-OV-3 it was 30.5 µM (inactive); in the experiment with A498, 51.5 µM (inactive). Moreover, the GI50 was 33.8 µM (inactive) in the experiment on NCI/ADR-RES; 39.9 µM (inactive) in the experiment on OVCAR-4; 16.2 µM (inactive) in the experiment with SF-539; 32.1 µM (inactive) with SF-268; 39.9 µM (inactive) with M14; 40 µM (inactive) in the experiment on HOP-62. The GI50 in the experiment with OVCAR-5 was > 100 µM (inactive); in the experiment with OVCAR-3, 21.6 µM (inactive); in the experiment on BT-549 it was 35.6 µM (inactive); in the experiment on EKVX, 81.5 µM (inactive); in the experiment with DU-145 it was 30 µM (inactive); in the experiment on SF-295, 30 µM (inactive).

On to `O=c1c(-c2ccc3c(c2)OCO3)coc2c3c(ccc12)OCO3`, for which the GI50 in the experiment with 786-0 is 19.4 µM (inactive); with HCT-15 it was 28.4 µM; with T47D, 37.8 µM (inactive); with PC-3, 75.9 µM (inactive); with SK-OV-3, 18.1 µM (inactive); with A498 it was 29 µM (inactive). The GI50 with OVCAR-4 was 24.8 µM (inactive); in the experiment on SF-539, 20 µM (inactive); in the experiment on SF-268 it was 19.1 µM (inactive); in the experiment on M14 it was 30 µM (inactive); in the experiment on HOP-62, 20.1 µM (inactive); with OVCAR-5 it was 56.6 µM (inactive). In addition, the GI50 with OVCAR-3 is 28.5 µM (inactive); with BT-549 it was 15.6 µM (inactive); in the experiment on EKVX it was 38 µM (inactive); in the experiment with DU-145, 41.4 µM (inactive); with SF-295 it was 18 µM (inactive).

In the case of `Clc1ccccc1C(SCc1ccccc1)SCc1ccccc1`, the GI50 in the experiment with 786-0 is > 100 µM (inactive); in the experiment on HCT-15, 75.2 µM; with PC-3, > 100 µM (inactive); in the experiment with NCI/ADR-RES, > 100 µM (inactive); in the experiment with OVCAR-4 it was > 100 µM (inactive); in the experiment with SF-539, > 100 µM (inactive). The GI50 in the experiment with SF-268, in the experiment with M14, in the experiment with HOP-62, in the experiment with RXF 393, with OVCAR-5 and in the experiment on OVCAR-3 was > 100 µM (inactive) throughout. Also, the GI50 in the experiment on BT-549 is > 100 µM (inactive); in the experiment with EKVX, 39.6 µM (inactive); with Malme-3M, > 100 µM (inactive); in the experiment on DU-145, > 100 µM (inactive); in the experiment on SF-295, > 100 µM (inactive).

`O=C(CC(=O)n1nc(-c2ccccc2)c(/N=N/c2ccc(Cl)cc2)c1-c1ccccc1)Nc1cccc(Cl)c1`: the GI50 in the experiment on 786-0 is 59.6 µM (inactive); in the experiment on HCT-15 it was 54.6 µM; in the experiment with T47D it was > 100 µM (inactive); with PC-3, 75 µM (inactive); in the experiment with A498, 34.3 µM (inactive); in the experiment with M14, 70.1 µM (inactive). The GI50 in the experiment on HOP-62 was 38 µM (inactive); in the experiment with RXF 393, > 100 µM (inactive); in the experiment on OVCAR-5, 96.4 µM (inactive); in the experiment on BT-549, > 100 µM (inactive); in the experiment on EKVX, 25.3 µM (inactive); in the experiment with Malme-3M, 42.9 µM (inactive).

`Nc1nc(N)c2c(n1)CCC(S(=O)(=O)c1ccc3ccccc3c1)C2` (stereo unspecified): the GI50 was 23.1 µM (inactive) in the experiment with 786-0; 2.38 µM with HCT-15; 14.5 µM (inactive) with T47D; 17.6 µM (inactive) in the experiment on PC-3; 33.3 µM (inactive) with SK-OV-3; 24.9 µM (inactive) in the experiment with A498. Also, the GI50 in the experiment on NCI/ADR-RES is 43.8 µM (inactive); in the experiment on SF-539, 3.8 µM (inactive); with SF-268, 11 µM (inactive); with M14, 12.6 µM (inactive); with HOP-62 it was 9.51 µM (inactive); with OVCAR-5, 87.7 µM (inactive). In addition, the GI50 was 10.9 µM (inactive) with OVCAR-3; 6.65 µM (inactive) with BT-549; 31.8 µM (inactive) in the experiment on EKVX; 2.24 µM (inactive) with Malme-3M; 9.59 µM (inactive) with DU-145; 1.66 µM (inactive) in the experiment with SF-295.

Take `COc1cc([C@@H]2c3cc4c(cc3[C@H](OC3OC5COC(C(C)C)OC5C(O)C3O)C3COC(=O)[C@@H]32)OCO4)cc(OC)c1O` (stereo partly specified): the GI50 was 10 µM (inactive) in the experiment on 786-0; 10.3 µM with HCT-15; 26.6 µM (inactive) in the experiment with T47D; 4.08 µM (inactive) with PC-3; 17.3 µM (inactive) in the experiment with SK-OV-3; 10.7 µM (inactive) with A498. In addition, the GI50 in the experiment with NCI/ADR-RES is 9.38 µM (inactive); in the experiment on OVCAR-4 it was 15.1 µM (inactive); with SF-539 it was 2.72 µM (inactive); with SF-268, 9.86 µM (inactive); with M14, 11.4 µM (inactive); with HOP-62, 11.7 µM (inactive). Also, the GI50 with RXF 393 is 4.76 µM (inactive); in the experiment on OVCAR-5 it was 12.4 µM (inactive); in the experiment with OVCAR-3, 11.8 µM (inactive); in the experiment with BT-549 it was 3.42 µM (inactive); in the experiment on EKVX it was 17.6 µM (inactive); with Malme-3M it was 16.6 µM (inactive). Further, in the experiment with SF-295, the GI50 is 8.22 µM (inactive).

Consider `C=C[C@@]1(C)CC(=O)[C@]2(O)[C@@]3(C)[C@@H](OC(C)=O)CCC(C)(C)[C@@H]3[C@H](O)[C@H](OC(C)=O)[C@@]2(C)O1`, for which the GI50 in the experiment on 786-0 is 83.6 µM (inactive); with HCT-15, > 100 µM; in the experiment with T47D, > 100 µM (inactive); in the experiment on PC-3, > 100 µM (inactive); in the experiment with SK-OV-3 it was > 100 µM (inactive); in the experiment on A498 it was > 100 µM (inactive). In addition, the GI50 with NCI/ADR-RES, in the experiment with OVCAR-4, in the experiment with SF-539, in the experiment on M14, with HOP-62 and in the experiment on OVCAR-5 was > 100 µM (inactive) throughout. The GI50 in the experiment with OVCAR-3, in the experiment with BT-549, with EKVX, in the experiment on DU-145 and with SF-295 was > 100 µM (inactive) each time.

Consider `O=c1cc2oc3ccc4ccccc4c3cc-2c(=O)[nH]1`, for which the GI50 was 13.8 µM (inactive) with 786-0; 7.55 µM in the experiment with HCT-15; 10.6 µM (inactive) in the experiment with PC-3; 20.3 µM (inactive) with SK-OV-3; 16.1 µM (inactive) with A498; 17.5 µM (inactive) with NCI/ADR-RES. Moreover, the GI50 in the experiment on OVCAR-4 was 22.3 µM (inactive); in the experiment with SF-539, 9.79 µM (inactive); in the experiment on SF-268, 12.7 µM (inactive); in the experiment on M14, 18.2 µM (inactive); in the experiment with HOP-62, 10.8 µM (inactive); in the experiment with OVCAR-5 it was 17.6 µM (inactive). Also, the GI50 in the experiment on OVCAR-3 is 11.4 µM (inactive); in the experiment with BT-549 it was 1.34 µM (inactive); with EKVX it was 18 µM (inactive); in the experiment on Malme-3M it was 16.2 µM (inactive); in the experiment with DU-145, 13.6 µM (inactive); in the experiment on SF-295 it was 20.7 µM (inactive).

Consider `CC(C)C1=C(O)C(=O)C2=C(C1=O)C(O)CC1C(C)(C)CCCC21C` (stereo unspecified), for which the GI50 with 786-0 was 9.2 µM (inactive); with HCT-15, 3.71 µM; in the experiment on PC-3, 10.2 µM (inactive); with SK-OV-3, 15 µM (inactive); in the experiment with A498 it was 14.3 µM (inactive); in the experiment on OVCAR-4, 14.6 µM (inactive). Besides, the GI50 with SF-539 is 16.9 µM (inactive); in the experiment on SF-268, 6 µM (inactive); in the experiment on M14, 3.92 µM (inactive); in the experiment with HOP-62, 7.35 µM (inactive); with RXF 393 it was 2.14 µM (inactive); with OVCAR-5 it was 20.4 µM (inactive). In addition, the GI50 was 11.4 µM (inactive) with OVCAR-3; 8.55 µM (inactive) in the experiment with BT-549; 6.56 µM (inactive) in the experiment with EKVX; 3.87 µM (inactive) with Malme-3M; 8.3 µM (inactive) in the experiment on DU-145; 21.7 µM (inactive) in the experiment with SF-295.

Consider `Cc1ccc(S(=O)(=O)N(CCN2C(=O)c3ccccc3C2=O)c2cc3c4c(c2)Oc2cc(N(CCN5C(=O)c6ccccc6C5=O)S(=O)(=O)c5ccc(C)cc5)cc5c2C4(C)c2c(cc(N(CCN4C(=O)c6ccccc6C4=O)S(=O)(=O)c4ccc(C)cc4)cc2O5)O3)cc1`, for which the GI50 was > 100 µM (inactive) in the experiment with 786-0; > 100 µM in the experiment with HCT-15; > 100 µM (inactive) in the experiment with T47D; > 100 µM (inactive) with PC-3; > 100 µM (inactive) with SK-OV-3; > 100 µM (inactive) with NCI/ADR-RES. Also, the GI50 in the experiment with OVCAR-4 was > 100 µM (inactive); with SF-539 it was > 100 µM (inactive); in the experiment with SF-268, > 100 µM (inactive); with M14, 35.7 µM (inactive); in the experiment with HOP-62, > 100 µM (inactive); in the experiment on RXF 393 it was > 100 µM (inactive). Besides, the GI50 in the experiment on OVCAR-5, in the experiment on OVCAR-3, with BT-549, with EKVX, in the experiment on DU-145 and in the experiment with SF-295 was > 100 µM (inactive) each time.

As for `N=C1/C(=C/c2ccccc2)C(=O)N=C2SC=NN12`, the GI50 is > 100 µM (inactive) in the experiment with 786-0; > 100 µM with HCT-15; > 100 µM (inactive) in the experiment with T47D; > 100 µM (inactive) with PC-3; > 100 µM (inactive) in the experiment with SK-OV-3; > 100 µM (inactive) in the experiment with NCI/ADR-RES. In addition, the GI50 with OVCAR-4 was > 100 µM (inactive); in the experiment with SF-539, 29.7 µM (inactive); in the experiment on SF-268, > 100 µM (inactive); with M14 it was > 100 µM (inactive); in the experiment with HOP-62, > 100 µM (inactive); in the experiment with RXF 393, > 100 µM (inactive). The GI50 in the experiment on OVCAR-5, with OVCAR-3, with BT-549, in the experiment with EKVX, in the experiment on Malme-3M and with DU-145 was > 100 µM (inactive) each time. Moreover, the GI50 with SF-295 was > 100 µM (inactive).
